Data from US20120010254A1 (priority 2008, published 2012).
Structures can show the parent of a compound that is named as a salt. Where two headings read alike, the source gives them in different places.

How the values were obtained:
[1] = molecular target: influenza virus sialidase (N1) (Influenza A virus, UniProt Q9WAA1); experiment: biochemical
[2] = system: avian influenza virus H5N1; conditions: literature value, Li et al. ref. 12; read-out: EC50 value against avian influenza virus H5N1; cited from earlier work

Chain of influenza virus sialidase (N1) (Q9WAA1 whole entry, looked up): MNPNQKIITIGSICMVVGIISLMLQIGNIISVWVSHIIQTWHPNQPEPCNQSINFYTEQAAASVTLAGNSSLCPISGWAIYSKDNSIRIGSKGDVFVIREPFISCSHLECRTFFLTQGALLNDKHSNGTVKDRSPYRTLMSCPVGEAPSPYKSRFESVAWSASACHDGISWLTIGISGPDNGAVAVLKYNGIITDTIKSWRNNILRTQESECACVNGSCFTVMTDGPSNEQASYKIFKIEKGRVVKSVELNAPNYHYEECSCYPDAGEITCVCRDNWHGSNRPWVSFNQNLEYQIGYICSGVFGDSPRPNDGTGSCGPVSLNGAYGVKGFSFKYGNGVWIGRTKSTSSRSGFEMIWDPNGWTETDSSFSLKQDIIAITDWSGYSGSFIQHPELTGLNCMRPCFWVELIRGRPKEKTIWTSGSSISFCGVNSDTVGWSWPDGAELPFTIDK

Q: With `CCC(CC)OC1CC(C(=O)O)=CC(n2cc(CCc3ccccc3)nn2)C1NC(C)=O` [Compound 43, 4-Acetylamino-5-(1-ethyl-propoxy)-3-(4-phenethyl-[1,2,3]triazol-1-yl)-cyclohex-1-enecarboxylic acid L-arginine salt] as the compound, how does the Ki [1] read?
A: 12 µM

Q: For `CCC(CC)OC1CC(C(=O)O)=CC(NC(=N)N)C1NC(C)=O` (centres unmarked) [Compound 39, 4-Acetylamino-5-(1-ethyl-propoxy)-3-guanidino-cyclohex-1-enecarboxylic acid Trifluoroacetate salt], which Ki [1] is on record?
A: 0.0048 µM

Q: Which Ki [1] does the source give for `CCC(CC)OC1CC(C(=O)O)=CC(n2cc(C(C)(C)O)nn2)C1NC(C)=O` (centres unmarked) [Compound 3, 4-Acetylamino-5-(1-ethyl-propoxy)-3-[4-(1-hydroxy-1-methyl-ethyl)-[1,2,3]triazol-1-yl]-cyclohex-1-enecarboxylic acid] here?
A: 2 µM

Q: Which EC50 [2] does the source give for `CC(=O)N[C@H]1[C@H]([C@H](O)[C@H](O)CO)OC(C(=O)O)=C[C@@H]1NC(=N)N` [4-deoxy-4-guanidino-Neu5Ac2en] here?
A: 2.8 µM

Q: Which results are given for `CCC(CC)OC1CC(C(=O)O)=CC(n2cc(C3(O)CCCC3)nn2)C1NC(C)=O` (centres unmarked) [Compound 6, 4-Acetylamino-5-(1-ethyl-propoxy)-3-[4-(1-hydroxy-cyclopentyl)-[1,2,3]triazol-1-yl]-cyclohex-1-enecarboxylic acid]?
A: IC50 [1]: 110 µM; Inhibitory activity in words [1]: less effective as inhibitors

Q: With `CC(=O)N[C@H]1[C@H]([C@H](O)[C@H](O)CO)OC(C(=O)O)=C[C@@H]1N` [4-amino-4-deoxy-Neu5Ac2en, reference compound] as the compound, how does the Ki ([1]; read-out: Ki) read?
A: 0.01 µM

Q: For `CCC(O)c1cn([C@H]2C=C(C(=O)O)O[C@@H]([C@H](O)[C@H](O)CO)[C@@H]2NC(C)=O)nn1` (some centres unmarked) [formula (B)], which EC50 [2] is on record?
A: 6.4 µM

Q: With `CCC(CC)OC1CC(C(=O)O)=CC(n2cc(CCCO)nn2)C1NC(C)=O` (centres unmarked) [Compound 1, 4-Acetylamino-5-(1-ethyl-propoxy)-3-[4-(3-hydroxy-propyl)-[1,2,3]triazol-1-yl]-cyclohex-1-enecarboxylic acid] as the compound, how does the Ki [1] read?
A: 5 µM

Q: With “4-Acetylamino-3-[4-((17α)-estra-1,3,5(10)-triene-3,17-dihydroxy-17-yl)-[1,2,3]triazol-1-yl]-5-(1-ethyl-propoxy)-cyclohex-1-enecarboxylic acid L-arginine salt [Compound 44]” as the compound, how does the Ki ([1]; read-out: Ki) read?
A: 59 µM

Q: With `CCC(CC)OC1CC(C(=O)O)=CC(n2cc(C3(O)CCCCC3)nn2)C1NC(C)=O` (centres unmarked) [Compound 5, 4-Acetylamino-5-(1-ethyl-propoxy)-3-[4-(1-hydroxy-cyclohexyl)-[1,2,3]triazol-1-yl]-cyclohex-1-enecarboxylic acid] as the compound, how does the IC50 [1] read?
A: 48 µM

Q: And the “Inhibitory activity in words” value [1]?
A: less effective as inhibitors

Q: With `CCC(CC)OC1CC(C(=O)O)=CC(N)C1NC(C)=O` (centres unmarked) [Compound 38, 4-Acetylamino-3-amino-5-(1-ethyl-propoxy)-cyclohex-1-enecarboxylic acid, reference compound] as the compound, how does the Ki [1] read?
A: 0.02 µM

Q: With `CCC(CC)OC1CC(C(=O)O)=CC(n2cc(C(O)CC)nn2)C1NC(C)=O` (centres unmarked) [Compound 2, 4-Acetylamino-5-(1-ethyl-propoxy)-3-[4-(1-hydroxy-propyl)-[1,2,3]triazol-1-yl]-cyclohex-1-enecarboxylic acid] as the compound, how does the Ki [1] read?
A: 0.7 µM
